US11965006B2, “Antimicrobial and anti-cancer therapy” (UNIVERSITY OF PITTSBURGH—OF THE COMMONWEALTH SYSTEM OF …, priority 2016, dated 2024)
Entries after “also recorded” stand apart in the source; their conditions may differ. Where two headings read alike, the source gives them in different places. Square brackets hold non-standard residues; d marks the D form. Ends that are not written are not given here. Peptide text beside a SMILES is read from it.

Columns and labels:
Hep2 epithelial cells = assay: Hep2 cytopathology in RSV plaque assay; assay type: cell-based; conditions: 32 μM
Procedure: Using a standard plaque assay, RSV replication was quantified in permissive Hep2 epithelial cells in the presence or absence of various AMPs. RSV plaque assays were used to determine the minimum dose required to induce Hep2 cytopathology and maximum anti-viral effects. Experimental controls included Hep2 cells+/−RSV and Hep-2 cells with AMP only.
Hep2 control cells without the AMP were also plated. Both plates were infected with the same dilution of A2 RSV virus. There is extensive sloughing of cells treated with the peptide (top plate) as compared to cells which were not (bottom plate), FIG. 18.

[1] = In vivo pulmonary toxicity; set-up: species or system mouse
Procedure: Pulmonary toxicity was tested in mouse lung.

[2] = In vivo toxicity / maximum tolerated dose; set-up: species or system Mice (strain: Swiss Webster)
Procedure: The modified AMPs show a lower toxicity and higher maximum tolerated dosage (MTD) than WLBU2 (SEQ ID No. 26). The MTD for WLBU2 (SEQ ID No. 26) is 15 mg/kg, for Colistin is 10 mg/kg, and SEQ ID No. 15 is 30 mg/kg (FIG. 14A).
Mice (strain: Swiss Webster) were injected with SEQ ID No. 15 peptides intravenously (i.v.) or intraperitoneally (i.p.) at the concentrations indicated. […] Thus, the estimated maximum tolerated dose (MTD) is around 40-50 mpk (i.v.). On a similar setting of testing other AMPS, the MTD for WLBU2 is 15 mpk (i.v.) and 10 mpk (i.v.) for colistin.

[3] = system: P. aeruginosa lipopolysaccharide (LPS)-induced secretion of tumor necrosis factor (TNF) in Raw (264.7) Cells; assay: Neutralization of LPS-induced TNF secretion; assay type: cell-based; conditions: 1 μg/ml LPS
Procedure: Anti-inflammatory activity is based on the determination of cytokine stimulation of major inflammatory (e.g. TNF) or anti-inflammatory (e.g., IL-10) cytokines. For in vitro studies, TNF is measured using culture medium from LPS-stimulated macrophage cultures in the presence or absence of peptide treatment. For in vivo studies, cytokine levels in bronchoalveolar lavage (BAL) fluid were quantified using the mouse cytokine multiplex panel assay (Milliplex; Millipore, Billerica, Mass.). The expressions of cytokines were analyzed using the Luminex assay system, based on manufacturer's instructions and our previous publication. Standard recombinant protein solution was used to generate a standard curve for each analyzed protein. Absolute cytokine concentrations were calculated from the standard curve for each cytokine.
A high dosage (1 μg/ml) of LPS was used to stimulate the TNF secretion in raw cells.

[4] = system: Klebsiella pneumonia MDR clinical isolates; assay type: cell-based
Procedure: (§1) The bactericidal activities were examined using standard bacterial culture media (MHB) without the inclusion of human blood.
(§2) Tables 3 and 4 provide the MIC data for the tested AMPs against a variety of infectious species. The following strains were tested: Enterococcus faecium MDR clinical isolates Ef 25153 and Ef 26125; methicillin-resistant Staphylococcus aureus (MRSA) clinical isolates USA300 and 150-10; Klebsiella pneumonia MDR clinical isolates C3, C5, A5, D7 and E6; and Pseudomonas aeruginosa MDR clinical isolates PA 82-8 and PA 129-5. […] Table 5 provides the data for the D-amino acid substituted AMPs and their bactericidal activities against various Klebsiella pneumonia multi-drug resistant (MDR) clinical isolates. All odd number Kp bacteria (isolated prior to colistin treatment; colistin sensitive) are paired with the corresponding even number Kp bacteria (isolated after colistin treatment; colistin resistant) from the same patient. O.D. readings represent the bacterial growth with a background reading of about 0.049+/−0.003.

[5] = system: Pseudomonas aeruginosa MDR clinical isolates; assay type: cell-based
Procedure: as §1, §2

[6] = system: methicillin-resistant Staphylococcus aureus (MRSA) clinical isolates; assay type: cell-based
Procedure: as §1, §2

[7] = system: Enterococcus faecium MDR clinical isolates; assay type: cell-based
Procedure: as §1, §2

Pseudomonas aeruginosa = assay type: cell-based; conditions: for MIC: 18 h
Procedure: as §1
FIG. 5 illustrates the bactericidal activity of the 30 amino acid AMP series against Pseudomonas aeruginosa (by kinetic assay) over time (hours). […] OD reading, at 570 nm, represents bacterial growth; background reading (˜0.05) was subtracted from sample readings. Bolded concentration indicates the determined MIC. For example, MIC for SEQ ID No. 4 was 4 μM, MIC for SEQ ID No. 8 was 2 μM, MIC for SEQ ID No. 7 was 2 μM, MIC for SEQ ID No. 5 was 2 μM, MIC for SEQ ID No. 6 was 2 μM, and MIC for SEQ ID No. 9 was 2 μM.
FIG. 6 illustrates the bactericidal activity of the 24 amino acid AMPs series against Pseudomonas aeruginosa (by kinetic assay) over time (hours). […] OD reading, at 570 nm, represents bacterial growth; background reading (˜0.05) was subtracted from sample readings. Bolded concentration indicates the determined MIC.

P. aeruginosa = assay: In vivo respiratory P. aeruginosa infection; conditions: high dosage bacterial inoculation, FIG. 16
[8] = methicillin-resistant clinical isolates, 18 h

Compound	neutralizing LPS-induced TNF secretion [3]	MIC A5 ([4]; 18 h) [µM]	MIC C3 ([4]; 18 h) [µM]	MIC C5 ([4]; 18 h) [µM]	MIC PA82 82-8 ([5]; MDR clinical isolates, 18 h) [µM]	MIC PA 129-5 ([5]; MDR clinical isolates, 18 h) [µM]	MIC MRSA 150-10 [6, 8] [µM]	MIC MRSA USA300 [6, 8] [µM]	MIC Ef 25153 ([7]; MDR clinical isolates, 18 h) [µM]	MIC Ef 26125 ([7]; MDR clinical isolates, 18 h) [µM]	MIC D7 ([4]; 18 h) [µM]	MIC E6 ([4]; 18 h) [µM]	MIC (Pseudomonas aeruginosa) [µM]	further results
CC(C)[C@@H](NC(=O)[C@H](Cc1c[nH]c2ccccc12)NC(=O)[C@H](CCCNC(=N)N)NC(=O)[C@H](CCCNC(=N)N)NC(=O)[C@H](NC(=O)[C@H](NC(=O)[C@H](CCCNC(=N)N)NC(=O)[C@H](NC(=O)[C@H](NC(=O)[C@H](CCCNC(=N)N)NC(=O)[C@H](CCCNC(=N)N)NC(=O)[C@H](Cc1c[nH]c2ccccc12)NC(=O)[C@H](NC(=O)[C@H](CCCNC(=N)N)NC(=O)[C@H](CCCNC(=N)N)NC(=O)[C@H](NC(=O)[C@H](CCCNC(=N)N)NC(=O)[C@H](CCCNC(=N)N)NC(=O)[C@H](NC(=O)[C@H](Cc1c[nH]c2ccccc12)NC(=O)[C@H](CCCNC(=N)N)NC(=O)[C@@H](N)CCCNC(=N)N)C(C)C)C(C)C)C(C)C)C(C)C)C(C)C)C(C)C)C(C)C)C(=O)N[C@@H](CCCNC(=N)N)C(=O)N[C@@H](CCCNC(=N)N)C(=O)O [SEQ ID No. 34] (H-RRW[dV]RR[dV]RR[dV]WRR[dV][dV]R[dV][dV]RRW[dV]RR-OH; N-terminus and C-terminus assumed)														cytopathology in Hep2 cells (Hep2 epithelial cells): caused cytopathology; recruitment of leukocytes (a measure of inflammation) ([1]; at four times the concentration of SEQ ID No. 26): significantly lower than SEQ ID No. 26; behaviour of mice after treatment ([1]; response to the hand grab): more active and responsive
Colistin [reference compound]	Do Not Neutralize													maximum tolerated dosage (MTD) ([2]; FIG. 14A): 10 mg/kg; maximum tolerated dose (MTD) ([2]; i.v., Swiss Webster mice): 10 mpk; MIC A5 ([4]; isolate A5, Table 3): >32 µM; MIC C3 ([4]; isolate C3, Table 3): >32 µM; MIC C5 ([4]; isolate C5, Table 3): >32 µM; MIC D7 ([4]; isolate D7, Table 3): <16 µM; MIC E6 ([4]; isolate E6, Table 3): <16 µM; MIC PA 82-8 ([5]; isolate PA 82-8, Table 3): <16 µM; MIC PA 129-5 ([5]; isolate PA 129-5, Table 3): <16 µM; MIC MRSA 150-10 ([6]; isolate 150-10, Table 3): <16 µM; MIC MRSA USA300 ([6]; isolate USA300, Table 3): <16 µM; MIC Ef 25153 ([7]; isolate Ef 25153, Table 3): <16 µM; MIC Ef 26125 ([7]; isolate Ef 26125, Table 3): <16 µM
ILKKWWGTSGGLLGGLLGKVTSVIKGLNNI [SEQ ID No. 3]	good activity; also recorded: display Neutralizing Activities	32	>32	>32	>32	>32	<32	<32	16	16				bactericidal activity (Pseudomonas aeruginosa; kinetic assay, FIG. 5): did not have strong bactericidal activity
ILKKWWKTSGGLLGGLLGKVTSVIKGLNNI [SEQ ID No. 4]	good activity; also recorded: display Neutralizing Activities	>4	>4	4	>4	4	>4	>4	>4	<2	<2	>4	4	
ILKKWWKTSKGLLGGLLGGVTSVIKKLKKI [SEQ ID No. 7]			<2	4	2	<2	<2	<2	>4	<2	<2	<2	2	
ILKKWWKTSKGLLGGLLGGVTSVIKKLKKI [SEQ ID No. 8]		>4	<2	4	>4	<2	4	<2	>4	<2	<2	<2	2	
ILKKWWKTSKGLLGGLLGKVTSVIKGLKNI [SEQ ID No. 6]	display Neutralizing Activities	>4	4	4	>4	>4	<2	>4	>4	<1	4	4	2	
ILKKWWKTSKGLLGGLLGKVTSVIKGLNNI [SEQ ID No. 5]	good activity; also recorded: display Neutralizing Activities	>4	4	2	>4	<1	>4	>4	>4	<2	<1	4	2	
ILKKWWKTVKGLLGGLLGGVTSVIKKLKKI [SEQ ID No. 9]		>4	<2	4	>4	>4	<2	<2	<2	<2	<2	<2	2	
LKKWWKKVKGLLGGLLGK [SEQ ID No. 19, LKKWWKKVKGLLGGLLGK]	good activity; also recorded: Display Neutralizing Activities	<2	<2		8	<1	<1	<2	<2	<2	<2	<2		antimicrobial activity against respiratory P. aeruginosa infection (P. aeruginosa): excellent antimicrobial activity
LKKWWKTVKGLLGGLLGKVTSVIK [SEQ ID No. 14]	good activity; also recorded: Display Neutralizing Activities	>4	<2	4	<2	<2	<2	<2	<2	<2	<2	<2		antimicrobial activity against respiratory P. aeruginosa infection (P. aeruginosa): excellent antimicrobial activity
